Data: ChEMBL document CHEMBL1201862, “PubChem BioAssay data set” (2004)
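Method: 48-hour compound exposure of cells in 96-well plates, five concentrations, linear interpolation of endpoints. Abbreviation: GI50, concentration required for 50% inhibition of growth.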 Activity calls are given as the source filed them. Rule as the data show it: active = GI50 up to about 1.1 µM and inactive = higher.

What was measured:
Experiment in all cases: NCI tumour cell line growth inhibition, 48 h
SW-620 = test system: SW-620
SNB-19 = test system: SNB-19
HCT-116 = test system: HCT-116
OVCAR-3 = test system: OVCAR-3
SF-295 = test system: SF-295
M19-MEL = test system: M19-MEL
786-0 = test system: 786-0
UACC-257 = test system: UACC-257
Malme-3M = test system: Malme-3M
HL-60 = test system: HL-60
ACHN = test system: ACHN
NCI-H226 = test system: NCI-H226
A549 = test system: A549
SF-539 = test system: SF-539
MCF7 = test system: MCF7
Hs-578T = test system: Hs-578T
MDA-N = test system: MDA-N
MDA-MB-435 = test system: MDA-MB-435
IGROV-1 = test system: IGROV-1
NCI/ADR-RES = test system: NCI/ADR-RES

Row | SMILES | GI50 (SW-620) | GI50 (SNB-19) | GI50 (HCT-116) | GI50 (OVCAR-3) | GI50 (SF-295) | GI50 (M19-MEL) | GI50 (786-0) | GI50 (UACC-257) | GI50 (Malme-3M) | GI50 (HL-60) | GI50 (ACHN) | GI50 (NCI-H226) | GI50 (A549) | GI50 (SF-539) | GI50 (MCF7) | GI50 (Hs-578T) | GI50 (MDA-N) | GI50 (MDA-MB-435) | GI50 (IGROV-1) | GI50 (NCI/ADR-RES)
1 | O=C(O)c1oc2ccc([N+](=O)[O-])c3c2c1CCC3 | > 100 µM (inactive) | > 100 µM (inactive) | > 100 µM (inactive) | > 100 µM (inactive) | > 100 µM (inactive) | > 100 µM (inactive) | 98.9 µM (inactive) | > 100 µM (inactive) | 54.1 µM (inactive) | > 100 µM (inactive) | > 100 µM (inactive) | > 100 µM (inactive) | > 100 µM (inactive) | > 100 µM (inactive) | – | – | – | – | – | –
2 | CCOC(=O)/C(=C\c1ccccc1)C(=O)CCN1CCOCC1 | 2.33 µM (inactive) | 16.2 µM (inactive) | 8.97 µM (inactive) | 7.41 µM (inactive) | 19.2 µM (inactive) | 3.62 µM (inactive) | 7.78 µM (inactive) | 4.58 µM (inactive) | 2.7 µM (inactive) | 1.4 µM (inactive) | 5.38 µM (inactive) | 20.7 µM (inactive) | 22.4 µM (inactive) | 7.26 µM (inactive) | 5.2 µM (inactive) | 47.1 µM (inactive) | 6.03 µM (inactive) | 19 µM (inactive) | 15.2 µM (inactive) | 3.06 µM (inactive)
3 | C[N+]1(C)C/C(=C\c2ccccc2)C(=O)/C(=C/c2ccccc2)C1 | – | – | > 100 µM (inactive) | > 100 µM (inactive) | > 100 µM (inactive) | 32.7 µM (inactive) | > 100 µM (inactive) | > 100 µM (inactive) | > 100 µM (inactive) | > 100 µM (inactive) | > 100 µM (inactive) | > 100 µM (inactive) | > 100 µM (inactive) | > 100 µM (inactive) | – | – | – | – | > 100 µM (inactive) | –
4 | Nc1ccccc1C(=O)CCC1C(=O)NC(=S)NC1=O | > 100 µM (inactive) | > 100 µM (inactive) | > 100 µM (inactive) | > 100 µM (inactive) | > 100 µM (inactive) | > 100 µM (inactive) | > 100 µM (inactive) | > 100 µM (inactive) | > 100 µM (inactive) | > 100 µM (inactive) | > 100 µM (inactive) | > 100 µM (inactive) | > 100 µM (inactive) | > 100 µM (inactive) | > 100 µM (inactive) | > 100 µM (inactive) | > 100 µM (inactive) | – | > 100 µM (inactive) | > 100 µM (inactive)
5 | O=C(Nc1nc2ncn(CC(COc3ccccc3)OC(=O)c3ccccc3)c2c(=O)[nH]1)c1ccccc1 (configuration not stated) | > 100 µM (inactive) | > 100 µM (inactive) | > 100 µM (inactive) | > 100 µM (inactive) | 48 µM (inactive) | > 100 µM (inactive) | > 100 µM (inactive) | > 100 µM (inactive) | > 100 µM (inactive) | < 0.01 µM (active) | > 100 µM (inactive) | > 100 µM (inactive) | > 100 µM (inactive) | > 100 µM (inactive) | – | – | – | – | > 100 µM (inactive) | –
6 | COc1ccc2c3c(c(C(=O)O)oc13)CCC2 | > 100 µM (inactive) | > 100 µM (inactive) | > 100 µM (inactive) | > 100 µM (inactive) | > 100 µM (inactive) | > 100 µM (inactive) | > 100 µM (inactive) | > 100 µM (inactive) | > 100 µM (inactive) | > 100 µM (inactive) | > 100 µM (inactive) | 18.2 µM (inactive) | > 100 µM (inactive) | > 100 µM (inactive) | – | – | – | – | > 100 µM (inactive) | –
7 | CSC1(C)CC2C(CC1N1CCCCC1)C2(C)C (configuration not stated) | – | – | > 100 µM (inactive) | > 100 µM (inactive) | > 100 µM (inactive) | > 100 µM (inactive) | > 100 µM (inactive) | > 100 µM (inactive) | > 100 µM (inactive) | > 100 µM (inactive) | > 100 µM (inactive) | > 100 µM (inactive) | > 100 µM (inactive) | > 100 µM (inactive) | – | – | – | – | > 100 µM (inactive) | –
8 | c1ccc(C2CC(c3ccc4ccccc4c3)=Nc3ccccc3S2)cc1 (configuration not stated) | 18.8 µM (inactive) | 19.1 µM (inactive) | 14.8 µM (inactive) | 17.3 µM (inactive) | 17.9 µM (inactive) | 18.7 µM (inactive) | 16.6 µM (inactive) | 19.5 µM (inactive) | 19.4 µM (inactive) | 19.5 µM (inactive) | 16.7 µM (inactive) | 19.4 µM (inactive) | 18.3 µM (inactive) | 16.7 µM (inactive) | – | – | – | – | 22.8 µM (inactive) | –
9 | O=C(c1ccc(Cl)cc1)N(C(=S)N1CCN(c2ccccc2)CC1)c1ccccc1 | > 100 µM (inactive) | > 100 µM (inactive) | > 100 µM (inactive) | > 100 µM (inactive) | > 100 µM (inactive) | > 100 µM (inactive) | > 100 µM (inactive) | > 100 µM (inactive) | > 100 µM (inactive) | > 100 µM (inactive) | > 100 µM (inactive) | 53.8 µM (inactive) | > 100 µM (inactive) | > 100 µM (inactive) | – | – | – | – | > 100 µM (inactive) | –
10 | O=C1CC(C[C@H](O)C2CCCCC2O)CC(=O)N1Cc1ccccc1 (some centres not stated) | > 100 µM (inactive) | > 100 µM (inactive) | > 100 µM (inactive) | > 100 µM (inactive) | > 100 µM (inactive) | > 100 µM (inactive) | > 100 µM (inactive) | > 100 µM (inactive) | > 100 µM (inactive) | > 100 µM (inactive) | > 100 µM (inactive) | > 100 µM (inactive) | > 100 µM (inactive) | > 100 µM (inactive) | – | – | – | – | > 100 µM (inactive) | –
11 | COc1cc(Br)c(/C=N\c2cccc3cc(OC)c(OC)cc23)cc1OC | 35.6 µM (inactive) | > 100 µM (inactive) | 34.3 µM (inactive) | 23.5 µM (inactive) | 25.9 µM (inactive) | 41.6 µM (inactive) | 22.6 µM (inactive) | 85.7 µM (inactive) | 54.1 µM (inactive) | 11.3 µM (inactive) | 51.5 µM (inactive) | 41.7 µM (inactive) | > 100 µM (inactive) | 22.1 µM (inactive) | – | – | – | – | 61.2 µM (inactive) | –
12 | CCCS(=O)(=O)/C(=C(\c1ccc(Br)cc1)S(=O)(=O)CCC)c1ccc(Br)cc1 | > 10 µM (inactive) | > 10 µM (inactive) | > 10 µM (inactive) | > 10 µM (inactive) | > 10 µM (inactive) | > 10 µM (inactive) | > 10 µM (inactive) | > 10 µM (inactive) | > 10 µM (inactive) | > 10 µM (inactive) | > 10 µM (inactive) | > 10 µM (inactive) | > 10 µM (inactive) | > 10 µM (inactive) | – | – | – | – | > 10 µM (inactive) | –
13 | CC(=O)OCC1OC(NC(=S)N/N=C2\CC(c3ccccc3)Oc3ccccc32)C(OC(C)=O)C(OC(C)=O)C1OC(C)=O (configuration not stated) | > 100 µM (inactive) | > 100 µM (inactive) | > 100 µM (inactive) | > 100 µM (inactive) | > 100 µM (inactive) | > 100 µM (inactive) | > 100 µM (inactive) | > 100 µM (inactive) | > 100 µM (inactive) | > 100 µM (inactive) | > 100 µM (inactive) | > 100 µM (inactive) | > 100 µM (inactive) | > 100 µM (inactive) | – | – | – | – | > 100 µM (inactive) | –
14 | CCOC(=O)C1=C(C)N(Cc2ccccc2)C(C)=C(C(=O)OCC)C1c1ccccc1O | 39.9 µM (inactive) | 43.2 µM (inactive) | 29.4 µM (inactive) | 25.2 µM (inactive) | 33.1 µM (inactive) | 27.4 µM (inactive) | 44.6 µM (inactive) | 26.9 µM (inactive) | 26 µM (inactive) | 26.6 µM (inactive) | 28.1 µM (inactive) | 19.4 µM (inactive) | 29.2 µM (inactive) | 27.7 µM (inactive) | – | – | – | – | 25.5 µM (inactive) | –
15 | CSc1ccc2c(cc1=O)C(NC(=O)c1cc(O)c(OC(=O)O)c(O)c1)CCc1cc(O)c(O)c(O)c1-2 (configuration not stated) | 14 µM (inactive) | 50.9 µM (inactive) | 16.5 µM (inactive) | 18.2 µM (inactive) | 17.4 µM (inactive) | 13.6 µM (inactive) | 34 µM (inactive) | 31 µM (inactive) | 35 µM (inactive) | 10 µM (inactive) | 33.8 µM (inactive) | 18.8 µM (inactive) | 19.5 µM (inactive) | 26.5 µM (inactive) | – | – | – | – | 19.7 µM (inactive) | –
16 | CCCC(=O)c1ccc(=O)n(C)c1 | > 100 µM (inactive) | > 100 µM (inactive) | > 100 µM (inactive) | > 100 µM (inactive) | > 100 µM (inactive) | > 100 µM (inactive) | > 100 µM (inactive) | – | > 100 µM (inactive) | > 100 µM (inactive) | > 100 µM (inactive) | > 100 µM (inactive) | > 100 µM (inactive) | > 100 µM (inactive) | – | – | – | – | > 100 µM (inactive) | –
17 | CC(Cl)(/C=C/Cl)C(Cl)/C=C/C(Cl)(CCl)CBr (configuration not stated) | 2.15 µM (inactive) | 14.1 µM (inactive) | 1.54 µM (inactive) | 12.5 µM (inactive) | 6.53 µM (inactive) | 3.12 µM (inactive) | 2.9 µM (inactive) | 2.2 µM (inactive) | 3.37 µM (inactive) | 0.533 µM (active) | 5.51 µM (inactive) | 10.2 µM (inactive) | 15.2 µM (inactive) | – | – | – | – | – | 8.71 µM (inactive) | –
